Experimental data reported in patent US11155636B2, “PRL3 antibody” (Agency for Science, Technology and Research, priority 2016, dated 2021).

Key:
[1] = tested on: advanced HCC; conditions: cited from earlier work
[2] = tested on: PRL-3+ and PRL-3− cancer cells; assay: In vitro cancer cell growth assay; assay type: cell-based; conditions: PRL-3+ and PRL-3− cells; PRL3-zumab up to 50 mg/mL
[3] = tested on: PRL-3^+ SNU-484 orthotopic gastric tumors; assay: Orthotopic gastric cancer model, SNU-484; assay type: in vivo, Balb/C nude mice
Protocol: Eight-week old male Balb/C nude mice obtained from the Biological Resource Centre (A*STAR, Singapore) were used for all animal models in this study. […] The stomach was taken out through the abdominal incision by surgical forceps, and cancer cells were injected into the subserosa layer. Subsequently, the stomach was placed back and the abdomen was sutured back in layers. […] The treatment regime commenced on day 2 post-inoculation of cancer cells in the gastric subserosa layer. […] PBS was used as a control in “untreated” mice. […] Tumor volumes were calculated using the formula: volume=0.4×tumor length×tumor width×tumor width.
10 μm-thick cryosection slides were fixed with 4% formalin for 20 min and incubated with 1% H2O2-PBS in the dark for 5 min. Washed slides were then blocked in PBS containing 10% goat serum and 1% BSA (Sigma) for 1 h at RT. Subsequently, slides were washed four times in PBS-0.05% Tween-20 with gentle shaking and incubated with goat anti-human labeled polymer-HRP (Dako) for 2 h before washing extensively and incubating with substrate-chromogen solution (Dako) for 10-20 min in the dark. Mounted slides were examined using a brightfield microscope (Olympus) and representative images were captured.

[4] = set-up: species or system Balb/C nude mice; conditions: mouse, in vivo
Protocol: WBC staining of mouse blood smears: After smearing a thin layer from a drop of fresh mouse blood on a glass slide, slides were baked at 37° C. for 1 h before flooding with modified Wright Giemsa stain (Sigma) for 1 min followed by washing with deionized water for 3 min. After drying, the stained slide was observed under microscope, with WBCs stained blue. Estimation of total WBC was performed under light microscopy (Olympus) by counting in ten visual fields in each slide and calculation using the equation WBCs/μl=(total number of counted WBC/number of fields)×2000. Full blood counts: Hematological analysis of mice samples was conducted by Quest Laboratories (Singapore).
We tested four treatment protocols: PBS control (Group 1), PRL3-zumab monotherapy (Group 2), PRL3-zumab+5-FU combination therapy (Group 3), or 5-FU monotherapy (Group 4). According to the treatment protocol, bi-weekly doses of PRL3-zumab (100 μg/dose) or 5-FU (30 mg/kg/dose) were administered individually, or in combination, intravenously into groups of nude mice carrying orthotopic PRL-3^+ SNU-484 gastric tumors.

## CNC(=O)c1cc(Oc2ccc(NC(=O)Nc3ccc(Cl)c(C(F)(F)F)c3)cc2)ccn1 [Sorafenib]
[1]
  extended median survival: 2.8 months

## N.N.[Cl][Pt][Cl] [cisplatin]
[2]
  cancer cell growth in vitro: dose-dependent, nonspecific cell killing

## O=c1[nH]cc(F)c(=O)[nH]1 [5-FU, 5-fluorouracil]
[3]; four-group study, bi-weekly i.v. PRL3-zumab 100 μg/dose and/or 5-FU 30 mg/kg/dose, Day 28, n=5 per group
  mean tumor volume: 1.76±0.52 cm^3
[3]; tumor sections, compared to untreated
  numbers of infiltrating B cells and NK cells (immunofluorescence): lack of B or NK cell infiltration
[4]
  haematological profile (full blood counts): reduced neutrophil, lymphocyte, and monocyte counts
  overall animal activity: reduction in overall animal activity
  reduction in peripheral WBC counts compared to control or PRL3-zumab monotherapy: 5 fold
